Data taken from patent publication US20050089516A1, “Skin vitalizing composition for external use anti-aging preparation” (SHISEIDO COMPANY, LTD., priority 2002, published 2005).

Key:
[1] = system: basement membrane structure directly under the epidermis; experiment: Transmission electron microscopy of artificial skin; assay type: cell-based, human; details: Example 1; 10 μM compound A, with or without 10 μg/ml aprotinin
Method: (§1) Collagen gel was obtained by preparing 10 ml of a human dermal fibroblasts (0.3-1×10^5 cell/ml)-suspended collagen solution (using I-AC collagen manufactured by Koken Co., Ltd.) on ice, followed by gelling the collagen in a 60 mm Petri dish at 37° C. The gel was then peeled from the bottom of the dish, the collagen gel was placed on metal, and a glass ring (12 mm inner diameter) was placed over the gel. A 0.4 ml portion of a human foreskin-derived epidermal keratinocyte (1×10^6/ml) suspension (KGM-DMEM (1:1) mixed medium containing 5% fetal bovine serum) was poured into the glass ring while avoiding leakage. The keratinocytes were allowed to adhere in a CO2 incubator overnight, and the ring was removed on the following day. The medium was filled in up to the border of the epidermal layer, and culturing was continued while exposing the epidermal layer to the air, to prepare a multilayered skin model with epidermis having a horny layer. […]

type VII collagen = experiment: Artificial skin culture, immunostaining with anti-type VII collagen antibody; assay type: cell-based, human; details: Example 1; culturing for 2 weeks; 10 μM compound A, 10 μg/ml aprotinin, 1 ng/ml interleukin-1β, 1 ng/ml TGF-α, 100 ng/ml PDGF; versus no-compound control
Method: as §1

COc1ccc(S(=O)(=O)N(Cc2cccnc2)C(C(=O)NO)C(C)C)cc1.Cl (centres unmarked) [compound A]
basement membrane structure by transmission electron microscope [1]: induced formation of the basement membrane | staining of type VII collagen directly under the basal keratinocytes (type VII collagen): weak but definite staining
